Results taken from article PMC4700278, “Molecular and Biochemical Analysis of the Estrogenic and Proliferative Properties of Vitamin E Compounds” (Frontiers in Oncology, 2016).

What was measured:
[1] = system: ER-dependent transcription in MELN cells; assay: ERE-luciferase reporter assay in MELN cells (MCF-7 stably transfected with ERE-β-globin-tk-Luc); type: cell-based, human; settings: 500 μM, maximal response = 10 nM E2
From the text: MELN cells were established by transfecting ER(+) MCF-7 cells with the ERE-β-globin-tk-Luc-SV-Neo plasmid ([36]). HELN cells were generated by transfection of ER(−) HeLa cells with this plasmid. The HELN-ERα, HELN-ERβ, HELN-ΔAB-ERα, and HELN-ΔAB-ERβ cell lines then underwent a second transfection with the corresponding pSG5-puro plasmids (pSG5-ERα-puro, pSG5-ERβ-puro, pSG5-ΔAB-ERα-puro, and pSG5-ΔAB-ERβ-puro, respectively) and expressed wild-type or mutated ERα or ERβ ([39], [40]). […] Comparison of the activities toward hERα and hERβ with the truncated ΔAB-ERα and ΔAB-ERβ provides a powerful model to identify partial ER agonists (requiring ligand-independent AF-1 to induce maximal ER activation). […] Cells were grown routinely in DMEM growth medium supplemented with 5% FBS (Gibco BRL, Life Technologies, Cergy pontoise, France). Cells were incubated at 37°C in a humidified 5% CO2 incubator. For experiments, cells were grown for 5 days in phenol red-free medium, containing 6% dextran-coated charcoal-treated FCS (DCC-FCS) with penicillin–streptomycin. Medium was changed after 2 days. On day 5, cells were treated or not with the compounds, which were dissolved in ethanol. For each condition, 15 × 10^3 cells were seeded per well in 12-well plates and treated, as described above, for 8 h in a final volume of 0.5 ml. At the end of the treatment, cells were washed with PBS and lysed in 150 μl lysis buffer (Promega, Charbonnières, France). Luciferase activity was measured using the luciferase assay reagent (Promega), according to the manufacturer’s instructions. Protein concentrations were measured using the Bradford technique ([41]) to normalize the luciferase activity data. For each condition, average luciferase activity was calculated from the data of three independent wells.
(§1) Figure 3 Measurement of estrogenicity of tocols in vitro. (A) Dose–response curve of the effect of tocols on MCF-7 cells stably transfected with the ERE-β-globin-tk-Luc plasmid (MELN cells). […] Data shown are the mean values ± SEM from three independent experiments. […] MCF-7 extracts were analyzed for the presence of ERα by western blotting using GAPDH as a control. […] The western blot shown is representative of three independent experiments. The ratio of ERα to GAPDH levels in each experiment was determined densitometrically and normalized to control value (taken to be 1). (D) Effect of δ-tocols on estrogen response element-dependent luciferase activity in HELN cells, which are HELA cells transfected with either fully functional ERα or ERβ or their mutated versions containing a deletion the AB domain (ΔAB). […] Data shown are the mean values ± SEM from three independent experiments. […] Cells were treated with 500 μM δ-tocols in the presence or in the absence of ICI. The relative expression of TGFα, PR, and Ps2 (TFF1) after 16 h was analyzed by quantitative RT-PCR. Data shown are the mean values ± SEM from three independent experiments.

MCF-7 (ER(+)) cells = assay: Cell proliferation assay (sulforhodamine B); type: cell-based, human; settings: 500 μM δ-TP or δ-TT; 30 μM lovastatin; 6-day period
Experimental: MCF-7 (ER(+)), T47D (ER(+)), and MDA-MB-231 (ER(−)) cell lines were from ATCC. Cell lines were maintained at 37°C in a humidified incubator in a 5% CO2-enriched atmosphere in T-75 flasks. […] Cells were grown for 24 h before treatment in phenol red-free medium containing 5% DCC-FCS. Cells were seeded into 96-well plates at 2000 cells/well. Treatment media (150 μl/well) was added on the following day and replaced at 48-h intervals until the end of the experiment. Cell density was measured via the sulforhodamine B method ([43]) after 0, 2, 4, 6, and 8 days. The absorbance of SRB was measured directly at 490 nm in the 96-well plates using a multiskan® multisoft reader from Labsystem.

ERα [2] = target: T1, ERα (Homo sapiens, UniProt P03372); assay: Estrogen receptor-binding assay, competition with [3H]-17β-estradiol; parameters: expressed in transfected cells; host or cells: Cos-7; settings: extracts of cos-7 cells expressing human ERα; 2 nM [3H]-E2; tocols 1 μM to 1 mM; N.M. = not measurable
T1 sequence (P03372 1-595): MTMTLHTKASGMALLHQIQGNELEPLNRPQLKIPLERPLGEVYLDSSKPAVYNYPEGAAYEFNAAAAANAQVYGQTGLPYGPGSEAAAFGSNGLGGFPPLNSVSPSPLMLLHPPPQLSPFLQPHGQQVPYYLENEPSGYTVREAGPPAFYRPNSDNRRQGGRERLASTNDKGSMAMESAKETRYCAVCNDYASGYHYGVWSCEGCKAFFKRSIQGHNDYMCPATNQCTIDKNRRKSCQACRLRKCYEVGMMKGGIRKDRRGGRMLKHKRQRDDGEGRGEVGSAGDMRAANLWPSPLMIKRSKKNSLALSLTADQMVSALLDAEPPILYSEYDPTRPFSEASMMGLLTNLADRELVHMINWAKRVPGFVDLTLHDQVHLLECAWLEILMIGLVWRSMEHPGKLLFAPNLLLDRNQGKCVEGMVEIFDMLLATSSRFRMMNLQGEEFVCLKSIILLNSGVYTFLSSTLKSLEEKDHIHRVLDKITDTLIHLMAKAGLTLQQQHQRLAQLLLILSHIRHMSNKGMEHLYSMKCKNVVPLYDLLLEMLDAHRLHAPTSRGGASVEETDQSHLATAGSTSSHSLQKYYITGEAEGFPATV

MDA-MB-231 (ER(−)) cells = assay: Cell proliferation assay (sulforhodamine B); type: cell-based, human; settings: 500 μM δ-TP or δ-TT; 30 μM lovastatin; 6-day period
Experimental: MCF-7 (ER(+)), T47D (ER(+)), and MDA-MB-231 (ER(−)) cell lines were from ATCC. Cell lines were maintained at 37°C in a humidified incubator in a 5% CO2-enriched atmosphere in T-75 flasks. MCF-7, T47D, and MDA-MB-231 cells were grown routinely in phenol red RPMI 1640 medium supplemented with 5% FBS (Gibco BRL, Life Technologies, Cergy Pontoise, France) and with penicillin–streptomycin. Cells were grown for 24 h before treatment in phenol red-free medium containing 5% DCC-FCS. Cells were seeded into 96-well plates at 2000 cells/well. Treatment media (150 μl/well) was added on the following day and replaced at 48-h intervals until the end of the experiment. Cell density was measured via the sulforhodamine B method ([43]) after 0, 2, 4, 6, and 8 days. The absorbance of SRB was measured directly at 490 nm in the 96-well plates using a multiskan® multisoft reader from Labsystem.
Figure 4 Effect of tocol on ER(+) and ER(−) BC cell proliferation and HMG-CoA reductase activity. (A) Effect of δ-tocols on estrogen and non-estrogen-regulated growth of MCF-7, T47D, and MDA-MB-231 cells. […] Cells were also treated with 30 μM lovastatin (Lova) in the presence or absence of 5 mM M, as described in Section “Materials and Methods.” Values are shown as means and vertical bars represent SEM. The data were analyzed by two-way ANOVA, followed by Bonferroni post hoc test. ***P < 0.001, **P < 0.01, and *P < 0.05 in comparison with control or bare-linked specific control. Ns: not significant. (B) Effect of δ-TT on hydroxymethylglutaryl coenzyme A reductase (HMGR) activity in MCF-7, T47D, and MDA-MB-231 cells. […] Data shown are the mean values ± SEM from three independent experiments performed in triplicate.

ERα [3] = target: T1, ERα; settings: MCF-7 cells; 500 μM δ-TP or δ-TT, 100 nM E2; 3 h; western blot, GAPDH control
Experimental: as §1

| IC50 (ERα [2]) [µM] | degradation of ERα protein (ERα [3]) | Structure (SMILES) | luciferase activity as % of the maximal ER-dependent response [1] [%] | effect on MCF-7 cell proliferation (MCF-7 (ER(+)) cells) | effect on MDA-MB-231 cell proliferation (MDA-MB-231 (ER(−)) cells) |
| --- | --- | --- | --- | --- | --- |
| 118 ± 15 | not degraded | Cc1cc(O)cc2c1OC(C)(CCCC(C)CCCC(C)CCCC(C)C)CC2 (stereo not shown) [δ-TP, δ-tocopherol] | 76.5 | significant stimulation | no impact |
| 96 ± 6 | not degraded | CC(C)=CCC/C(C)=C/CC/C(C)=C/CC[C@]1(C)CCc2cc(O)cc(C)c2O1 [δ-TT, δ-tocotrienol] | 86.6 | inhibited the proliferation | inhibited the proliferation |
